Data: patent US20180289655A1, “Methods and Compositions for the Intravenous Administration of Fumarates for the Treatment of Neurological Diseases” (Biogen MA Inc., priority 2015, published 2018)
“Also recorded” adds a separate entry of the source. Where a name gives a salt, the structure may show the parent alone.

Assays:
[1] = system: malonate-induced striatal lesion in rats; test: Immunofluorescence microscopy (NeuN, GFAP) of lesioned rat brain sections; format: in vivo, Sprague-Dawley rats; settings: DMF p.o. 100 mg/kg and vehicle
Description: For tissue to be analyzed by immunofluorescence, animals were anesthetized and transcardially perfused with 4% paraformaldehyde. Brains were removed and post-fixed overnight at 4° C. Tissue was then transferred to 30% sucrose in PBS. Serial 25-μM frozen sections were cut in the coronal plane and air-dried onto gelatin-coated glass slides. All tissue sections were washed in PBS and blocked with 5% normal goat serum in solution with 0.1% Triton X-100/PBS for 45 minutes at room temperature. Sections were then incubated with monoclonal anti-NeuN (1:500; Millipore, Temecula, Calif., USA) for neurons and polyclonal anti-glial fibrillary acidic protein (GFAP) (1:600) for astrocytes in blocking solution overnight at 4° C. Secondary antibody incubations were for 1 hour at room temperature. All immunofluorescence images were acquired with Openlab and Spectrum software.

[2] = Tail histopathology for DMF IV multi-dose tolerability; format: in vivo, C57BL/6 mice; settings: Study 3, DMF IV 30 mg/kg once a day for 5 consecutive days
Description: Tissue samples were preserved in 10% neutral buffered formalin (NBF) and then transferred to the Translational Pathology Laboratory for processing into paraffin blocks, slide preparation, and hematoxylin and eosin staining. Histopathology evaluation of the stained slides was performed by the Biogen Idec Comparative Pathology department (data not provided herein).
A CBC with differential panel was performed at 10 minutes post-last dose via facial vein bleeding, and at 2 hours after the last dose, pharmacodynamic Nrf2 transcriptional responses were analyzed in tissues from the same animals. Histopathology was also performed on regions of the tail in a pilot toxicology study.

[3] = system: malonate-induced striatal lesion in rats; test: Malonate-induced striatal lesion volume (cytochrome oxidase histochemistry), oral DMF; format: in vivo, Sprague-Dawley rats
Description: Two separate experiments were conducted and are reported here.
Rats were anesthetized under Bupivacaine (2 mg/kg), Brevital (50 mg/kg, i.p.) and isoflurane anesthesia, placed in a stereotaxic frame and prepared for intrastriatal injection. A single injection of malonate was injected at a single site in the left striatum corresponding to stereotaxic coordinates at AP: […] from bregma; Lateral: 2.8 mm from midline; DV: −5.5 mm from surface of the skull at bregma. Malonate (in saline) was injected at a dose of 2.0 μmols in 2.0 μl over 4 minutes using a syringe pump. The injection needle was left in place for an additional 1.0 min following the infusion and was withdrawn slowly to minimize reflux of the infusate up the needle tract. Rats were kept warm on a heating pad until waking from anesthesia (Green and Greenamyre, 1995).
Three (Experiment 1) or four (Experiment 2) days after the malonate injection and 30 min after the last dose, all animals were sacrificed by CO2, and their brains were quickly removed and stored in 20% sucrose in PBS for at least 1 hour, then transfer them to 30% sucrose in PBS overnight. On next day, all brains were embedded in OCT and stored in −80° C. The first experiment included three treatment groups: vehicle, 30 mg/kg and 100 mg/kg, and the second experiment included four treatment groups: vehicle, 50 mg/kg, 75 mg/kg and 100 mg/kg.
Incubation medium consisted of 200 mg cytochrome C and 200 mg of 3, 3′-Diaminobenzidine tetrahydrochloride (DAB) in 500 ml of 0.1 M phosphate buffer, pH 7.4. Slides were incubated for 90 minutes at 37° C. and wash twice with PBS (2-5 min.), then removed to 4% neutral, buffered, paraformaldehyde for 20 minutes. Sections were rinsed twice with PBS (2-5 min.), then twice with distilled water (2-5 min.), dehydrated, cleared in xylene, and coverslipped.
The lesion area on each section was quantified using Open-Lab Image Analysis System. Sections were taken throughout the entire striatum and a total of twenty 25 μm sections were analyzed for each rat. Area measurements were summed and multiplied by intersectional distance (200 μm) to determine the lesion volume for each subject.
Data for lesion volume was analyzed by one way analysis of variance (ANOVA) followed by a Tukey's test to assess differences between the treatment and vehicle groups.

Q: With `COC(=O)/C=C/C(=O)OC` [DMF, dimethyl fumarate] as the compound, how does the “Astrocytes (GFAP) near the lesion border” value [1] read?
A: Astrocytes appear to survive in both vehicle and DMF treated animals

Q: And the “Tail histology near the injection site” value [2]?
A: changes similar to that which was observed in vehicle control mice; also recorded: did not reveal any treatment-related findings

Q: And the “Reduction of malonate induced lesion volume” value ([3]; Experiment 1, DMF 100 mg/kg oral daily, n=7 per group)?
A: 55%

Q: What about the “Reduction of malonate-induced lesion volume” value ([3]; Experiment 2, DMF 75 mg/kg oral daily) of the same compound?
A: 44%

Q: And the “Reduction of malonate-induced lesion volume” value ([3]; Experiment 2, DMF 100 mg/kg oral daily)?
A: 61%

Q: What about the “Reduction of malonate-induced lesion volume” value ([3]; both experiments, DMF 100 mg/kg oral daily) of the same compound?
A: at least 55%
